Measurements as given in patent US20080261896A1, “Testosterone generating and metabolizing enhancer” (Sinphar Pharmaceutical Co., Ltd., priority 2007, published 2008).

Test system: mouse Leydig tumor cell line R2C
Test: Test 1: testosterone generation of the mouse Leydig tumor cell line R2C (Testosterone EIA kit)
Type: cell-based
Conditions: R2C cells
Text: Test 1: Testing testosterone generation of the mouse Leydig tumor cell line R2C.
Materials: The extract of C. tubulosa prepared in the aforesaid first embodiment, and said echinacoside and acteoside used in the second and the third embodiments. The mouse Leydig tumor cell line R2C was obtained from the Japan Health Sciences Foundation (Osaka), and a Testosterone EIA testing kit was used to test testosterone levels.
Method: The R2C cells were subcultured in a cell medium called Ham's F10, which comprised 15% bovine serum, 2.5% fetal bovine serum, 100 units/mL penicillin G, and 100 μg/mL streptomycin. The cells were inoculated on a 24-hole plate at a density of 5×10^5 cells/mL, and 500 μL of the cell medium was added into each hole. After culturing for 24 hours, 50 μL of solutions resulted from dissolving samples from the first to the third embodiments in the same cell medium was added into each hole. After culturing for another 4 fours, the cells were collected along with the cell medium and subjected to centrifugation, so as to collect supernatant that included the cell medium. The Testosterone EIA testing kit (manufactured by Cayman Chemical Corporate) was used to determine testosterone concentrations in the each tested sample, and the results were shown in FIG. 1.

Which results are given for `C[C@@H]1O[C@@H](O[C@@H]2[C@@H](O)[C@H](OCCc3ccc(O)c(O)c3)O[C@H](CO)[C@H]2OC(=O)/C=C/c2ccc(O)c(O)c2)[C@H](O)[C@H](O)[C@H]1O` [acteoside]?
testosterone generation (testosterone level in the supernatant) versus control (10 μg/mL): increased; testosterone generation (testosterone level in the supernatant) versus control (100 μg/mL): increased

With `C[C@@H]1O[C@@H](O[C@@H]2[C@@H](O)[C@H](OCCc3ccc(O)c(O)c3)O[C@H](CO[C@@H]3O[C@H](CO)[C@@H](O)[C@H](O)[C@H]3O)[C@H]2OC(=O)/C=C/c2ccc(O)c(O)c2)[C@H](O)[C@H](O)[C@H]1O` [echinacoside] as the molecule, how does the “testosterone generation (testosterone level in the supernatant) versus control” value (10 μg/mL) read?
Its value is “increased”.

And the “testosterone generation (testosterone level in the supernatant) versus control” value (30 μg/mL)?
The value was “increased”.

What about the “testosterone generation (testosterone level in the supernatant) versus control” value (100 μg/mL) of the same molecule?
Its value is “increased to twice as much as that of the control”.
